Assays:
[1] = test system: foot tapping in gerbils induced by central injection of an NK1 agonist; assay: Gerbil foot-tapping assay; type: in vivo, Mongolian gerbils; conditions: i.v.
Description: CNS penetrant NK-1 receptor antagonists for use in the present invention can be identified by their ability to inhibit foot tapping in gerbils induced by anxiogenic agents (such as pentagastrin) or central infusion of NK-1 receptor agonists such as GR73632, or caused by aversive stimulation such as foot shock or single housing, based on the method of Rupniak & Williams, Eur. J. Pharmacol., 1994, 265, 179.
Male or female Mongolian gerbils (35-70g) are anaesthetised by inhalation of an isoflurane/oxygen mixture to permit exposure of the jugular vein in order to permit administration of test compounds or vehicle in an injection volume of 5 ml/kg i.v. Alternatively, test compounds may be administered orally or by subcutaneous or intraperitoneal routes. The wound is closed and a second skin incision is made in the midline of the scalp to expose the skull. An anxiogenic agent (e.g. pentagastrin) or a selective NK-1 receptor agonist (e.g. GR73632 (d Ala[L-Pro^9,Me-Leu^10]-substance P-(7-11))) is infused directly into the cerebral ventricles (e.g. 3 pmol in 5 μl i.c.v. depending upon the agent) by vertical insertion of a cuffed 27 gauge needle to a depth of 4.5 mm below bregma. […] The duration and/or intensity of hind foot tapping is then recorded continuously for 5 minutes.

[2] = test system: distress vocalisations in guinea-pig pups; assay: Separation-induced vocalisation assay; type: in vivo, guinea-pigs; conditions: p.o.
Description: On test days each pup receives an oral dose or a s.c. or i.p. injection of test compound or vehicle and is then immediately returned to the home cage with its mother and siblings for 30 minutes to 60 minutes (or for up to 4 hours following an oral dose, dependant upon the oral pharmacokinetics of the test compound) before social isolation for 15 minutes as described above. […] Between 6 and 8 animals receive each test compound at each dose tested.

C[C@@H](O[C@H]1OCCN(Cc2n[nH]c(=O)[nH]2)[C@H]1c1ccc(F)cc1)c1cc(C(F)(F)F)cc(C(F)(F)F)c1 [2-(R)-(1-(R)-(3,5-bis(trifiuoromethyl)phenyl)-ethoxy)-3-(S)-(4-fluorophenyl)-4-(3-(5-oxo-1H,4H-1,2,4-triazolo)methyl)-morpholine]
gerbil foot-tapping (5 mins.): ID50 ([1]; 5 mins.): ID50 = 0.36 mg/kg i.v. | gerbil foot-tapping (24 hrs.): ID50 ([1]; 24 hrs. prior to challenge): ID50 = 0.33 mg/kg i.v. | guinea-pig vocalisation (4 hr. pre-treatment): ID50 [2]: ID50 = 0.73 mg/kg p.o.

Source: US6573261B2, “Method for treating or preventing psychosomatic and psychoimmunologic disorders” (Merck & Co., Inc., priority 1997, dated 2003)
